{"source": "ChEMBL document CHEMBL3745629", "about": "“Novel Amino-pyrazole Ureas with Potent In Vitro and In Vivo Antileishmanial Activity” (J Med Chem, 2015)", "format_in_all_cases": "ADME, organism-based, Mesocricetus auratus", "conditions_in_all_cases": "in vivo", "key": {"[1]": {"assay": "Tmax in golden hamster at 50 mg/kg, po"}, "[2]": {"assay": "Cmax in golden hamster at 50 mg/kg, po", "parameters": "dose 50 mg/kg, route oral"}, "[3]": {"assay": "AUC (0 to 24 hrs) in golden hamster at 50 mg/kg, po", "parameters": "dose 50 mg/kg, time < 24 hr, route oral"}}, "data": [{"smiles": "O=C(Nc1cc(-c2ccccn2)n[nH]1)N1CCN(c2ccc(F)cc2)CC1", "values": [{"measurement": "Tmax", "setting": "[1]", "value": 1.33, "unit": "h"}, {"measurement": "Cmax", "setting": "[2]", "value": 5680, "unit": "ng/mL"}, {"measurement": "AUC(0-t) at 24 h", "setting": "[3]", "value": 25400, "unit": "ng·h/mL"}]}]}
